Measurements reported in ChEMBL document CHEMBL5046246, “Dimeric Tetracenomycin Derivatives from a Taklamakan Desert-Derived Streptomyces sp. HDN154193” (2022).
In brackets after ≈: the same amount, converted by molar mass.

Key:
Type in all cases: functional
Proteus sp. = assay: Antibacterial activity against Proteus species assessed as reduction in bacterial growth by double dilution method; conditions: Proteus sp. (in: enterobacteria)
Staphylococcus = assay: Antibacterial activity against methicillin-resistant coagulase-negative Staphylococcus assessed as reduction in bacterial growth by double dilution method
Mycolicibacterium phlei = assay: Antibacterial activity against Mycobacterium phlei assessed as reduction in bacterial growth by double dilution method
Bacillus subtilis = assay: Antibacterial activity against Bacillus subtilis assessed as reduction in bacterial growth by double dilution method
Staphylococcus aureus = assay: Antibacterial activity against methicillin-resistant Staphylococcus aureus assessed as reduction in bacterial growth by double dilution method

| Structure (SMILES) | MIC (Proteus sp.) [µg/mL] | MIC (Staphylococcus) [µg/mL] | MIC (Mycolicibacterium phlei) [µg/mL] | MIC (Bacillus subtilis) [µg/mL] | MIC (Staphylococcus aureus) [µg/mL] |
| --- | --- | --- | --- | --- | --- |
| Cc1cc(O)cc2cc3c(c(O)c12)C(=O)c1c(O)cc(O)cc1[C@H]3[C@H]1c2cc(O)cc(O)c2C(=O)c2c1cc1cc(O)cc(C)c1c2O | 3.9 (≈ 6.07 µM) | 1.9 (≈ 2.96 µM) | 1.9 (≈ 2.96 µM) | 3.9 (≈ 6.07 µM) | 1.9 (≈ 2.96 µM) |
| Cc1cc(O)cc2cc3c(c(O)c12)C(=O)c1c(O)cc(O)cc1[C@@H]3[C@H]1c2cc(O)cc(O)c2C(=O)c2c1cc1cc(O)cc(C)c1c2O | 3.9 (≈ 6.07 µM) | 1.9 (≈ 2.96 µM) | 1.9 (≈ 2.96 µM) | 3.9 (≈ 6.07 µM) | 1.9 (≈ 2.96 µM) |
| Cc1cc(O)cc2cc3c(c(O)c12)C(=O)c1c(O)cc(O)cc1[C@H]3[C@@H]1c2cc(O)cc(O)c2C(=O)c2c1cc1cc(O)cc(C)c1c2O | 1.9 (≈ 2.96 µM) | 1.9 (≈ 2.96 µM) | 1.9 (≈ 2.96 µM) | 1.9 (≈ 2.96 µM) | 1.9 (≈ 2.96 µM) |
| Cc1cc(O)cc2cc3c(c(O)c12)C(=O)c1c(O)cc(O)cc1C3C1c2cc(O)cc(O)c2C(=O)c2c1cc1cc(O)cc(C)c1c2O (racemic) | 1.9 (≈ 2.96 µM) | 1.9 (≈ 2.96 µM) | 1 (≈ 1.56 µM) | 3.9 (≈ 6.07 µM) | 1 (≈ 1.56 µM) |
| O=C(O)c1cn(C2CC2)c2cc(N3CCNCC3)c(F)cc2c1=O [CIPROFLOXACIN] | < 0.1 | 32.1 (≈ 96.9 µM) | 0.1 (≈ 0.302 µM) | < 0.1 | 128 (≈ 388 µM) |
| Cc1cc(O)cc2cc3c(c(O)c12)C(=O)c1c(O)cc(O)cc1C3=O [TETRACENOMYCIN D] | 16 (≈ 47.6 µM) | 7.7 (≈ 22.9 µM) | 7.7 (≈ 22.9 µM) | 16 (≈ 47.6 µM) | 16 (≈ 47.6 µM) |
